“And” between values parts separate entries of the source, which are not always exact repeats. Equal values may be shown once.
Tests used:
[1] = test system: TA100; assay: In vitro bacterial mutagenicity assay (pre-incubation), strain TA100; conditions: for Number of revertants x1, x2, x3: individual plates
Procedure: (§1) Dispense 100 microliter aliquots of the appropriate bacterial cultures into sample tubes stored on ice. Dispense aliquots of the vehicle, positive controls or dose formulations into the appropriate sample tubes. 2 mL top Agar and HBT cap was added to the sample tube, inverted three times and poured into MG plate. The lid was replaced on the plate and left on a level surface to let the agar harden. The plates were incubated in an incubator for 48 to 72 h. The background lawn and count the number of revertants was checked for each plate.

[2] = 14 day tolerability study in uPA SCID (KMT) mouse; format: in vivo; conditions: for tolerability: 300 mg/kg once a day by oral gavage for 14 days, KMT mice
Procedure: Two separate groups of animals were treated with vehicle control or with a daily drug dose of 300 mg/kg for 14 days. Blood samples were taken 15 minutes after the drug doses on Day 1 (first dose), Day 7 and Day 14 (last dose) for measurement of the concentration of the drug in the serum of study animals. Body weights and health index scores were monitored daily in order to assess tolerance of the study animals to the dosing procedure and the drug. […] The solution was used to dose animals in a volume of 7.5 ml/kg. The citric acid buffer was also used for dosing of the vehicle control animals.
Ten KMT transgenic animals with low engraftment of human liver cells (hAAT values less than 20 at 6 weeks) were allocated to this study. Individual body weights of animals were recorded prior to treatment and daily during the study. Animals were also evaluated once a day (at morning dose administration) for clinical signs and monitored for morbidity and mortality. The study animals were allocated into 2 groups of 5 animals. Compound 2 or citric acid vehicle control were administered once a day by oral gavage employing a sterile syringe and feeding needle for each animal. Dosing volume was 7.5 mL/kg (150 μL/20 grams body weight) for all groups. The volume was adjusted based on the daily body weight of each individual animal. […] The study started on Day 1 with the first drug dose administered in the morning and continued up to Day 14, the last day of drug treatment. Blood was collected via the central tail artery from all animals of each group on Day 1, fifteen minutes after the first drug dose, on Day 7, fifteen minutes after the drug dose, and on Day 14, fifteen minutes after the last drug dose. The blood samples were allowed to clot and the serum removed from above the clot pellet. Serum samples were stored at −80° C. prior to shipment to the study client. […]
Individual body weights of the animals were recorded prior to treatment and daily during the course of the study. The animals were also evaluated daily for clinical signs and monitored for morbidity and mortality. […]

[3] = test system: WP2 uvrA; assay: In vitro bacterial mutagenicity assay (pre-incubation), strain WP2 uvrA; conditions: for Number of revertants x1, x2, x3: individual plates
Procedure: as §1

[4] = test system: TA1535; assay: In vitro bacterial mutagenicity assay (pre-incubation), strain TA1535; conditions: for Number of revertants x1, x2, x3: individual plates
Procedure: as §1

[5] = TA100, absence of S9, 50 μg/plate
[6] = TA100, absence of S9, 158 μg/plate
[7] = TA100, absence of S9, 500 μg/plate
[8] = TA100, absence of S9, 1581 μg/plate
[9] = TA100, absence of S9, 5000 μg/plate
[10] = TA100, presence of S9, 50 μg/plate
[11] = TA100, presence of S9, 158 μg/plate
[12] = TA100, presence of S9, 500 μg/plate
[13] = TA100, presence of S9, 1581 μg/plate
[14] = TA100, presence of S9, 5000 μg/plate
[15] = TA1535, absence of S9, 50 μg/plate
[16] = TA1535, absence of S9, 158 μg/plate
[17] = TA1535, absence of S9, 500 μg/plate
[18] = TA1535, absence of S9, 1581 μg/plate
[19] = TA1535, absence of S9, 5000 μg/plate
[20] = TA1535, presence of S9, 50 μg/plate
[21] = TA1535, presence of S9, 158 μg/plate
[22] = TA1535, presence of S9, 500 μg/plate
[23] = TA1535, presence of S9, 1581 μg/plate
[24] = TA1535, presence of S9, 5000 μg/plate

COC1C(OP(=O)(OC[C@H]2O[C@@H](n3cnc4c(N)ncnc43)CC2O)SCOC(=O)OC(C)C)[C@@H](CO)O[C@H]1n1ccc(=O)[nH]c1=O (stereo partly drawn) [Compound 2, S-isopropylcarbonyloxymethyl thiophosphate (6k) of 3′dApsU2′OMe]
Number of revertants mean [1, 5]: 112 | Number of revertants x1, x2, x3 [1, 5]: 98 and 112 and 127 | Number of revertants mean [1, 6]: 121 | Number of revertants x1, x2, x3 [1, 6]: 110 and 133 and 119 | Number of revertants mean [1, 7]: 133 | Number of revertants x1, x2, x3 [1, 7]: 134 and 127 and 138 | Number of revertants mean [1, 8]: 113 | Number of revertants x1, x2, x3 [1, 8]: 122 and 107 and 109 | Number of revertants mean [1, 9]: 115 | Number of revertants x1, x2, x3 [1, 9]: 98 and 126 and 122 | Number of revertants mean [1, 10]: 107 | Number of revertants x1, x2, x3 [1, 10]: 111 and 109 and 100 | Number of revertants mean [1, 11]: 120 | Number of revertants x1, x2, x3 [1, 11]: 115 and 133 and 111 | Number of revertants mean [1, 12]: 126 | Number of revertants x1, x2, x3 [1, 12]: 134 and 137 and 108 | Number of revertants mean [1, 13]: 126 | Number of revertants x1, x2, x3 [1, 13]: 136 and 122 and 121 | Number of revertants mean [1, 14]: 126 | Number of revertants x1, x2, x3 [1, 14]: 122 and 130 and 126 | body weight change ([2]; 300 mg/kg daily, Day 1 to Day 14, one animal in the drug group (F187)): small decrease in body weight | tolerability [2]: generally well tolerated | tolerability ([2]; listed as drug): well tolerated | Number of revertants mean ([3]; absence of S9, 50 μg/plate): 41 | Number of revertants x1, x2, x3 ([3]; absence of S9, 50 μg/plate): 34 and 43 and 45 | Number of revertants mean ([3]; absence of S9, 158 μg/plate): 42 | Number of revertants x1, x2, x3 ([3]; absence of S9, 158 μg/plate): 49 and 44 and 33 | Number of revertants mean ([3]; absence of S9, 500 μg/plate): 34 | Number of revertants x1, x2, x3 ([3]; absence of S9, 500 μg/plate): 39 and 26 and 38 | Number of revertants mean ([3]; absence of S9, 1581 μg/plate): 50 | Number of revertants x1, x2, x3 ([3]; absence of S9, 1581 μg/plate): 44 and 56 and 51 | Number of revertants mean ([3]; absence of S9, 5000 μg/plate): 52 | Number of revertants x1, x2, x3 ([3]; absence of S9, 5000 μg/plate): 62 and 39 and 54 | Number of revertants mean ([3]; presence of S9, 50 μg/plate): 44 | Number of revertants x1, x2, x3 ([3]; presence of S9, 50 μg/plate): 48 and 43 and 42 | Number of revertants mean ([3]; presence of S9, 158 μg/plate): 43 | Number of revertants x1, x2, x3 ([3]; presence of S9, 158 μg/plate): 46 and 43 and 40 | Number of revertants mean ([3]; presence of S9, 500 μg/plate): 41 | Number of revertants x1, x2, x3 ([3]; presence of S9, 500 μg/plate): 36 and 46 and 40 | Number of revertants mean ([3]; presence of S9, 1581 μg/plate): 47 | Number of revertants x1, x2, x3 ([3]; presence of S9, 1581 μg/plate): 52 and 43 and 45 | Number of revertants mean ([3]; presence of S9, 5000 μg/plate): 62 | Number of revertants x1, x2, x3 ([3]; presence of S9, 5000 μg/plate): 61 and 60 and 65 | Number of revertants mean [4, 15]: 14 | Number of revertants x1, x2, x3 [4, 15]: 10 and 15 and 16 | Number of revertants mean [4, 16]: 23 | Number of revertants x1, x2, x3 [4, 16]: 21 (2×) and 26 | Number of revertants mean [4, 17]: 17 | Number of revertants x1, x2, x3 [4, 17]: 15 and 20 and 17 | Number of revertants mean [4, 18]: 16 | Number of revertants x1, x2, x3 [4, 18]: 13 and 18 and 17 | Number of revertants mean [4, 19]: 18 | Number of revertants x1, x2, x3 [4, 19]: 18 (2×) and 17 | Number of revertants mean [4, 20]: 19 | Number of revertants x1, x2, x3 [4, 20]: 21 and 15 and 20 | Number of revertants mean [4, 21]: 16 | Number of revertants x1, x2, x3 [4, 21]: 11 and 20 and 16 | Number of revertants mean [4, 22]: 17 | Number of revertants x1, x2, x3 [4, 22]: 19 and 13 and 20 | Number of revertants mean [4, 23]: 22 | Number of revertants x1, x2, x3 [4, 23]: 27 and 21 and 17 | Number of revertants mean [4, 24]: 17 | Number of revertants x1, x2, x3 [4, 24]: 18 and 16 (2×)

— patent publication US8404651B2, “Compositions and methods for treating viral infections” (priority 2008, dated 2013)
